# Test results taken from US6897298B2, “Method for extracting a compound from a ginseng spp. plant, ginseng or pseudo-ginseng” (priority 2001, dated 2005).
# Like-named read-outs stand apart in the source and are kept apart here.
# What was measured:
# Acute toxicity test = settings: in vivo, Mouse
# Description: Results of acute toxicity test for Compound (I) were: […]
# [1] = test system: cerebral arteria embolisms/reperfusion injury rat model; assay: Scanning record of electroencephalogram after cerebral ischemia/reperfusion; format: in vivo; settings: 1 h block
# Description: (§1) Prepare cerebral arteria embolisms/reperfusion injury rat model according to Longna method. To bring the animal into a state of narcosis, give an intravenous injection of urethane (0.4 ml/100 g weight). Maintain body temperature of the rat at 37±0.5° C. (anal temperature). Let the rat lie on a plate with face toward the ceiling. Make a cut at the right middle of its neck. By means of microsurgery techniques, separate left neck communis and its branches. Isolate arteria carotis externa. By means of electric solidification, cut off occipital arteria, thyroid superia gland arteria, and arteria phyrynix externa, all of which are setting out from arteria carotis externa. Isolate arteria carotis externa further towards the head end. Tie the arteria carotis externa at a place as far as possible. Clamp the beginning part of the arteria carotis externa to make it close with an artery clamp. Tie a loose knot (with 5-0 silk thread going through the arteria carotis externa) at a place between the artery clamp and the tying thread. At a place close to the knot, cut to block the arteria carotis externa. […]
# One needle-type electrode was placed at top forehead. […] Electroencephalogram change outside of skin before and after obstruction was recorded with 8-lead physiological recorder made by Japan Optical-Electric Co.
# [2] = Three kinds of experiments (disability, cancer, mutation)
# Description: Therefore, its cure effects are good.
# [3] = test system: cerebral arteria embolisms/reperfusion injury rat model; assay: Pathological exam of nerve cells and nerve fibers (HE, myelin staining); format: in vivo; settings: iv 50 mg/kg, 10 mg/kg and 2 mg/kg; dosage-dependent
# Description: (§2) Prepare cerebral arteria embolisms/reperfusion injury rat model according to Longna method. To bring the animal into a state of narcosis, give an intravenous injection of urethane (0.4 ml/100 g weight). Maintain body temperature of the rat at 37±0.5° C. (anal temperature). Let the rat lie on a plate with face toward the ceiling. Make a cut at the right middle of its neck. By means of microsurgery techniques, separate left neck communis and its branches. Isolate arteria carotis externa. By means of electric solidification, cut off occipital arteria, thyroid superia gland arteria, and arteria phyrynix externa, all of which are setting out from arteria carotis externa. Isolate arteria carotis externa further towards the head end. Tie the arteria carotis externa at a place as far as possible. Clamp the beginning part of the arteria carotis externa to make it close with an artery clamp. Tie a loose knot (with 5-0 silk thread going through the arteria carotis externa) at a place between the artery clamp and the tying thread. At a place close to the knot, cut to block the arteria carotis externa. Put into the arteria carotis externa a 3-0 nylon thread, which is 5 cm long and has a drumstick-like head. Tie a fast knot on the silk thread on the arteria crotis externa to avoid bleeding. Remove the arteria clamp. Push the nylon thread slowly into the arteria carotis externa. […]
# [4] = test system: cerebral arteria embolisms/reperfusion injury rat model; assay: Behavior change score (Longa method); format: in vivo; settings: 5 hours after reperfusion
# Description: as §2
# [5] = test system: cerebral ischemia/reperfusion injury rats; assay: MDA content in cerebral tissue homogenate (TBA method); format: in vivo, rat; settings: Compound (I) 50 mg/kg, Nimodipine 40 μg/kg iv; 5 h after reperfusion; salt-water group 87.7±27.5; p>0.05 vs normal group
# [6] = Physical and chemical properties: solubility; format: physicochemical; settings: substance obtained in Example 1
# Description: Physical and chemical property tests and element analysis were carried out for the substance. Also done were its mass spectra, infrared and ultraviolet spectrum, ^1H and ^13C nuclear magnetic resonance tests. The conditions and results were:
# Physical and chemical properties: white or a little yellow powder. Melting point—209˜214° C.
# [7] = test system: cerebral arteria embolisms/reperfusion injury rat model; assay: Measurement of water content in brain tissue; format: in vivo; settings: Compound (I) intravenous injection
# Rats = settings: for toxicity finding: iv 14 days
# [8] = test system: cerebral arteria embolisms/reperfusion injury rat model; assay: Measurement of area of cerebral embolisms (TTC staining) after cerebral ischemia/reperfusion; format: in vivo
# Description: as §1, with “thread.” for “thread. At a place close to the knot, cut to block the arteria carotis externa.”
# Open the cranium and take the whole brain. […] The area of obstructed cerebral tissue was measured with a fully automatic image analysis system (Model IPAS-C, Kontror Co, Germany). […] For this experiment, the average value of those measured of slices 2 and 3 were taken as the measured result for each animal's area of obstruction. […]
# [9] = test system: cerebral ischemia/reperfusion injury rats; assay: SOD activity in cerebral tissue homogenate (pyrogallol self-oxidation method); format: in vivo, rat; settings: Compound (I) 50 mg/kg, Nimodipine 40 μg/kg iv; 5 h after reperfusion; normal 70.30±24.7 u/g, salt-water 46.7±16.6 u/g
# Description: 38 rats were used. After making cerebral ischemia/reperfusion injury, the rats were randomly divided into groups of contrast (equal volume of physiological salt-water), Nimodipine treatment (40 μg/kg), and Compound (I) treatment (50 mg/kg). […] After another 5 minutes, drug was given iv under tongue. 60 minutes after cerebral ischemia was made, reperfusion was made. After another 5 hours, rat brains were stripped off rapidly according to Gotoh Method. Right and left brain hemispheres were weighed respectively, and were kept in fridge at −70° C.
# The tissue to be measured (about 0.3˜0.5) were washed clean with physiological salt-water. Then cold distilled water was used to prepare homogenate on a glass blender. Then centrifugal machine was set at 1,500 rpm to work for 15 minutes, the temperature being 0° C. […]
# (1) SOD measurement (pyrogallol self-oxidation method): Take a 15 ml test tube. […] Change of absorbance is measured under conditions of: ultra-violet spectrophotometer (UV 1601 PC, Shimatsu Co., Japan), wavelength of 325 nm, and slit of 2. Then activity units are calculated according to the following formula: Tissue homogenate SOD(u/g cerebral tissue)=(control tube−sample tube)/control tube/0.5×1/cerebral tissue weight (g)
Compound,"LD50 (Acute toxicity test; im, intramuscular injection, 95% confidence margin 564.77˜603.79 mg/kg)","LD50 (Acute toxicity test; intravenous injection, 95% confidence margin 346.01˜366.64 mg/kg)","amplitude of electroencephalogram ([1]; 2 mg/kg dosage, 5 h after reperfusion)","amplitude of electroencephalogram ([1]; 50 mg/kg and 10 mg/kg, 5 h after reperfusion (p<0.01))","causes disability, cancer, and mutation [2]",degree of denaturalization of nerve fibers [3],number of nerve cells of necrosis [3],behavior obstruction caused by cerebral injuries [4],MDA content [5],solubility [6],water content increase of cerebral tissue in blocked area [7],toxicity finding (Rats; 100 mg/kg),toxicity finding (Rats; 10 and 30 mg/kg),"main toxic finding (Rats; iv injection for 14 days, injury correlated positively with dosage)","embolism (infarction) area of cerebral tissue ([8]; Compound (I) 2˜50 mg/kg iv, 1 h ischemia, 5 h after reperfusion, dosage dependent)","cure effects compared with Nimodipine ([8]; iv 50, 10 and 2 mg/kg, overall conclusion over all indexes)",SOD activity compared with normal contrast group (false surgery) [9],"behavior scores (0-5) ([4]; salt-water contrast group 3.3±1.0, p>0.05)"
"CC(C)=CCC[C@](C)(OCC1OC(CO)C(O)C(O)C1O)C1CC[C@]2(C)C1[C@H](O)CC1[C@@]3(C)CC[C@H](OC4OC(CO)C(O)C(O)C4OC4OC(CO)C(O)C(O)C4O)C(C)(C)C3CC[C@]12C (stereo partly drawn) [Compound (I), 20-(S)-protopanaxadiol-3-[O-β-D-glucopyranosyl (1→2)-β-D-glucopyranosyl]-20-O-β-D-glucopyranoside]",584 mg/kg,356 mg/kg,"tendency of improvement of electroencephalogram, but there was no significant statistics difference",could improve electroencephalogram significantly,does not have these side effects,could relieve the degree of denaturalization of nerve fibers,could decrease the number of nerve cells of necrosis,could be significantly relieved,65.8±19 nmol/mg tissue weight,"Very easy to dissolve in lower alcohol, acetone, chloroform, and hot water",could significantly lower water content increase of cerebral tissue in blocked area,poisonous dosage,minor local stimulation,inflammation of tail vein inner membrane,could decrease embolism area of cerebellum tissue,better than that of active contrast drug Nimodipine,no significant statistics difference,–
"COCCOC(=O)C1=C(C)NC(C)=C(C(=O)OC(C)C)C1c1cccc([N+](=O)[O-])c1 (stereo not shown) [Nimodipine, reference compound]",–,–,–,–,–,–,–,–,67.0±21.8 nmol/mg tissue weight,–,–,–,–,–,–,–,–,2.9±1.2 scores
